Experimental data reported in patent US20240400553A1, “AMINE BASED MATRIPTASE 2 INHIBITORS AND USES THEREOF” (Disc Medicine, Inc., priority 2023, published 2024).

Molecular target: T1, Human Recombinant Matriptase 2 (Homo sapiens, UniProt Q8IU80)
T1 construct: made in house
T1 sequence (Q8IU80 1-811): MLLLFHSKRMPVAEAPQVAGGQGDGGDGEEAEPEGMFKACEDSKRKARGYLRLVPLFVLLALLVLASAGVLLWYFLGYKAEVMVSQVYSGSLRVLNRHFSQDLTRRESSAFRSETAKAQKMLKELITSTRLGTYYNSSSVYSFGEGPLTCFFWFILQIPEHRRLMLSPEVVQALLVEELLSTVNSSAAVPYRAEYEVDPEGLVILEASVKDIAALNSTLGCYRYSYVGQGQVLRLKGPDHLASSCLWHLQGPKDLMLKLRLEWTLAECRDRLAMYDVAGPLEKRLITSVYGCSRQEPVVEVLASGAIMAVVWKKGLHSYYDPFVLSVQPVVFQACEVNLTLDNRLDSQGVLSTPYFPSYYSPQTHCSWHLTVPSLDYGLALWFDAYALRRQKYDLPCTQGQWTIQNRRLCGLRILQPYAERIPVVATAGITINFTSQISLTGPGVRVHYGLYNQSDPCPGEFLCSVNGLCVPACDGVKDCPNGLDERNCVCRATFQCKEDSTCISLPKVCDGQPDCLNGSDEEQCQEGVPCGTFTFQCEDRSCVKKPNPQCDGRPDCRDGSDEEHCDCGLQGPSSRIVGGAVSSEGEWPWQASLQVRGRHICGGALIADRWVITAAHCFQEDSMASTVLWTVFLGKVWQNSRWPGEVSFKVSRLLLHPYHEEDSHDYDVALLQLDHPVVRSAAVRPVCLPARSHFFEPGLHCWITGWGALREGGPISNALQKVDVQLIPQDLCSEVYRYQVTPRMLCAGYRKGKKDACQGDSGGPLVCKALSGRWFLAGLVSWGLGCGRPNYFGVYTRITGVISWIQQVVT
Test: Matriptase 2 inhibition, fluorescence based assay (Method I)
Assay type: biochemical
Conditions: Table A; Ki of Matriptase-2 given as class symbols; read-out: Mat-2 Ki
Summary of the method: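 In-house recombinant enzyme (3.5 nM), preincubated 30 min with compound, then Boc-Gln-Ala-Arg-AMC substrate (62 μM) in 50 mM Tris pH 7.5, 150 mM NaCl, 0.01% gelatin, 1% DMSO, 25 °C. Fluorescence (Ex 360/Em 480 nm) read 60 min after substrate; IC50 from variable-slope sigmoidal fit of % inhibition.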

`NCc1ccc2cc(-c3cnn[nH]3)n(Cc3cc(NS(=O)(=O)Cc4ccccc4)cc4ccccc34)c2n1` [Compound 350, N-(4-((6-(aminomethyl)-2-(1H-1,2,3-triazol-5-yl)-1H-pyrrolo[2,3-b]pyridin-1-yl)methyl)naphthalen-2-yl)-1-phenylmethanesulfonamide] was tested. Which Ki did it give?
Its Ki is 100 to 500 nM.

For `NCc1ccc2cc(-c3ccn[nH]3)n(Cc3cc(NS(=O)(=O)Cc4ccccc4)cc4ccccc34)c2n1` [Compound 351], which Ki is on record?
The Ki was at most 100 nM.

How did the Ki turn out when `NCc1ccc2cc(-c3ncn[nH]3)n(Cc3cc(NS(=O)(=O)Cc4ccccc4)cc4ccccc34)c2n1` [Compound 352] was run?
Its Ki is at most 100 nM.

For `NCc1ccc2cc(-c3noc(=O)[nH]3)n(Cc3cc(NS(=O)(=O)Cc4ccccc4)cc4ccccc34)c2n1` [Compound 353, N-(4-((6-(aminomethyl)-2-(5-hydroxy-1,2,4-oxadiazol-3-yl)-1H-pyrrolo[2,3-b]pyridin-1-yl)methyl)naphthalen-2-yl)-1-phenylmethanesulfonamide], which Ki is on record?
Its Ki is 100 to 500 nM.

With `CCOC(=O)c1cc2ccc(CNC(=O)c3ccccc3COC(C)=O)nc2n1Cc1cc(NS(=O)(=O)Cc2ccccc2)cc2ccccc12` [Compound 358, ethyl 6-[({2-[(acetyl-oxy)methyl]phenyl}-formamido)methyl]-1-{[3-(phenylmethane-sulfonamido)naphthalen-1-yl]methyl}-1H-pyr-rolo[2,3-b]pyridine-2-carboxylate] as the compound, how does the Ki read?
Its Ki is 500 to 3000 nM.

For `Cc1oc(=O)oc1COC(=O)NCc1ccc2cc(C(=O)O)n(Cc3cc(NS(=O)(=O)Cc4ccccc4)cc4ccccc34)c2n1` [Compound 359, 6-(((((5-methyl-2-oxo-1,3-dioxol-4-yl)methoxy)carbonyl)amino)methyl)-1-((3-((phenylmethyl)sulfonamido)naphthalen-1-yl)methyl)-1H-pyrrolo[2,3-b]pyridine-2-carboxylic acid], which Ki is on record?
The Ki was 100 to 500 nM.

Which Ki does the source give for `NCc1ccc2cc(C(=O)O)n(Cc3cc(NS(=O)(=O)Cc4ccccc4)cc4cccc(O)c34)c2n1` [Compound 360, 6-(aminomethyl)-1-((8-hydroxy-3-((phenylmethyl)sulfonamido)naphthalen-1-yl)methyl)-1H-pyrrolo[2,3-b]pyridine-2-carboxylic acid] here?
The Ki was 100 to 500 nM.

With `COc1ccc2c(Cn3c(C(=O)O)cc4ccc(CN)nc43)cc(NS(=O)(=O)Cc3ccccc3)cc2c1` [Compound 361] as the compound, how does the Ki read?
The Ki was 100 to 500 nM.

Which Ki does the source give for `NCc1ccc2cc(CO)n(Cc3cc(NS(=O)(=O)CC4CCNCC4)cc4ccccc34)c2n1` [Compound 362] here?
The Ki was 100 to 500 nM.

For `NCc1ccc2cc(CO)n(Cc3cc(NS(=O)(=O)Cc4ccccc4)cc4ccccc34)c2n1` [Compound 365, N-(4-((6-(aminomethyl)-2-(hydroxymethyl)-1H-pyrrolo[2,3-b]pyridin-1-yl)methyl)naphthalen-2-yl)-1-phenylmethanesulfonamide], which Ki is on record?
Its Ki is 500 to 3000 nM.

`NCc1ccc2cc(-c3nnn[nH]3)n(Cc3cc(NS(=O)(=O)Cc4ccccc4)cc4ccccc34)c2n1` [Compound 366, N-(4-((6-(aminomethyl)-2-(1H-tetrazol-5-yl)-1H-pyrrolo[2,3-b]pyridin-1-yl)methyl)naphthalen-2-yl)-1-phenylmethanesulfonamide] was tested. Which Ki did it give?
Its Ki is at most 100 nM.

With `NCc1ccc2cc(C(=O)O)n(Cc3cc(NS(=O)(=O)Cc4ccccc4)cc4ccccc34)c2c1` [Compound 370, 6-(aminomethyl)-1-((3-((phenylmethyl)sulfonamido)naphthalen-1-yl)methyl)-1H-indole-2-carboxylic acid] as the compound, how does the Ki read?
The Ki was at most 100 nM.

With `CN1CCC(OC(=O)c2cc3ccc(CN)cc3n2Cc2cc(NS(=O)(=O)Cc3ccccc3)cc3ccccc23)CC1` [Compound 371, 1-methylpiperidin-4-yl 6-(aminomethyl)-1-((3-((phenylmethyl)sulfonamido)naphthalen-1-yl)methyl)-1H-indole-2-carboxylate] as the compound, how does the Ki read?
The Ki was at most 100 nM.

How did the Ki turn out when `NCc1ccc2cc(C(=O)Nc3nnn[nH]3)n(Cc3cc(NS(=O)(=O)Cc4ccccc4)cc4ccccc34)c2c1` [Compound 372, 6-(aminomethyl)-1-((3-((phenylmethyl)sulfonamido)naphthalen-1-yl)methyl)-N-(1H-tetrazol-5-yl)-1H-indole-2-carboxamide] was run?
Its Ki is 100 to 500 nM.

Which Ki does the source give for `Cc1cccc(C)c1CS(=O)(=O)Nc1cc(Cn2c(C(=O)NCCC3CCN(C)CC3)cc3ccc(CN)cc32)c2ccccc2c1` [Compound 373, 6-(aminomethyl)-1-({3-[(2,6-dimethylphenyl)-methanesulfonamido]-naphthalen-1-yl}methyl)-N-[2-(1-methylpiperidin-4-yl)ethyl]-1H-indole-2-carboxamide] here?
The Ki was at most 100 nM.

For `CN1CCC(COC(=O)c2cc3ccc(CN)cc3n2Cc2cc(NS(=O)(=O)Cc3ccsc3)cc3ccccc23)CC1` [Compound 374, (1-methylpiperidin-4-yl)-methyl 6-(aminomethyl)-1-({3-[(thiophen-3-yl)-methanesulfonamido]-naphthalen-1-yl}methyl)-1H-indole-2-carboxylate], which Ki is on record?
The Ki was at most 100 nM.

With `Cc1cccc(C)c1CS(=O)(=O)Nc1cc(Cn2c(C(=O)OCC3CCN(C)CC3)cc3ccc(CN)cc32)c2ccccc2c1` [Compound 375, (1-methylpiperidin-4-yl)-methyl 6-(aminomethyl)-1-({3-[(2,6-dimethyl-phenyl)methanesulfon-amido)naphthalen-1-yl}-methyl)-1H-indole-2-carboxylate] as the compound, how does the Ki read?
The Ki was at most 100 nM.

How did the Ki turn out when `CN1CCC(COC(=O)c2cc3ccc(CN)cc3n2Cc2cc(NS(=O)(=O)Cc3ccccc3)cc3ccccc23)CC1` [Compound 376, (1-methylpiperidin-4-yl)-methyl 6-(aminomethyl)-1-1{[3-(phenylmethane-sulfonamido)naphthalen-1-yl]methyl}-1H-indole-2-carboxylate] was run?
The Ki was at most 100 nM.

`Cc1cccc(C)c1CS(=O)(=O)Nc1cc(Cn2c(C(=O)OCCC3CCN(C)CC3)cc3ccc(CN)cc32)c2ccccc2c1` [Compound 377, 2-(1-methylpiperidin-4-yl)ethyl 6-(aminometh-yl)-1-({3-[(2,6-dimethyl-phenyl)methanesulfon-amido]naphthalen-1-yl}-methyl)-1H-indole-2-carboxylate] was tested. Which Ki did it give?
The Ki was at most 100 nM.

With `C[C@H](c1ccccc1)S(=O)(=O)Nc1cc(Cn2c(C(=O)OCC3CCN(C)CC3)cc3ccc(CN)cc32)c2ccccc2c1` [Compound 378, (1-methylpiperidin-4-yl)-methyl 6-(aminomethyl)-1-({3-[(1R)-1-phenyl-ethane-sulfonamido]-naphthalen-1-yl}methyl)-1H-indole-2-carboxylate] as the compound, how does the Ki read?
The Ki was at most 100 nM.

`CN1CCC(COC(=O)c2cc3ccc(CN)cc3n2Cc2cc(NS(=O)(=O)Cc3cccs3)cc3ccccc23)CC1` [Compound 379, (1-methylpiperidin-4-yl)-methyl 6-(aminomethyl)-1-({3-[(thiophen-2-yl)-methanesulfonamido]-naphthalen-1-yl}meth-yl)-1H-indole-2-carbox-ylate] was tested. Which Ki did it give?
Its Ki is at most 100 nM.

How did the Ki turn out when `Cn1ccnc1COC(=O)c1cc2ccc(CN)cc2n1Cc1cc(NS(=O)(=O)Cc2ccsc2)cc2ccccc12` [Compound 381, (1-methyl-1H-imidazol-2-yl)methyl 6-(amino-methyl)-1-({3-[(thio-phen-3-yl)methanesulfon-amido]naphthalen-1-yl}-methyl)-1H-indole-2-carboxylate] was run?
The Ki was at most 100 nM.

With `Cn1ccnc1COC(=O)c1cc2ccc(CN)cc2n1Cc1cc(NS(=O)(=O)Cc2ccccc2)cc2ccccc12` [Compound 383, (1-methyl-1H-imidazol-2-yl)methyl 6-(amino-methyl)-1-{[3-(phenyl-methanesulfonamido)-naphthalen-1-yl]meth-yl}-1H-indole-2-carbox-ylate] as the compound, how does the Ki read?
The Ki was at most 100 nM.
